What all share (type): cell-based
One assay has as its system Botrytis cinerea. As to the kind of experiment: In vitro microtest of Botrytis cinerea. The procedure:
V.9. In vitro microtest of Botrytis cinerea
(§1) The microtest was performed in liquid medium with potato-dextrose broth (PDB) using microtitre plates.
(§2) The active compound is applied as the technical active substance dissolved in methanol.
A spore suspension of Botrytis cinerea was used for inoculation. After 5 days (combination A2+B1), 4 days (combination A3+B3), or 7 days ( combination A5+B1) of incubation by darkness under shaking (10 Hrz), the optical density in each cavity was evaluated with the aid of a microtitre plate reader. 0% means an efficacy which corresponds to that of the control, while an efficacy of 100% means that no fungal growth is observed.

A further assay concerns Septoria tritici. Description: In vitro microtest of Septoria tritici. The settings on record: 3 days incubation. How it is done:
V.8. In vitro microtest of Septoria tritici
The microtest was performed in liquid medium with potato-dextrose broth (PDB) using microlitre plates.
The active compound is applied as the technical active substance dissolved in methanol. A spore suspension of Septoria tritici was used for inoculation. After 3 days of incubation by darkness under shaking (10 Hrz), the optical density in each cavity was evaluated with the aid of a microtitre plate reader. 0% means an efficacy which corresponds to that of the control, while an efficacy of 100% means that no fungal growth is observed.

A further assay deals with Coriolus versicolor. As to the kind of experiment: In vitro microtest of Coriolus versicolor. To be noted: 3 days incubation. The procedure: V.5. In vitro Microtest of Coriolus versicolor
as §1, §2
A mycelium suspension of Coriolus versicolor was used for inoculation. After 3 days of incubation by darkness under shaking (10 Hrz), the optical density in each cavity was evaluated with the aid of a microtitre plate reader. 0% means an efficacy which corresponds to that of the control, while an efficacy of 100% means that no fungal growth is observed.

The next assay deals with Pyricularia oryzae.
The next assay relates to Penicillium brevicaule. As to the kind of experiment: In vitro microtest of Penicillium brevicaule (optical density in PDB, microtitre plates). To be noted: 7 days incubation.
In a further assay the test system is Gibberella zeae.
The next assay has as its system Rhizoctonia solani. As to the kind of experiment: In vitro microtest of Rhizoctonia solani. How it is done: V.10. In vitro Microtest of Rhizoctania solani
as §1, §2
A mycelium suspension of Rhizoctonia solani was used for inoculation. After 3 days (combinations A1+B3, A3+B2), 7 days (combination A2+B1), 4 days (combination A4+B2) or 5 days (combination A5+B1) of incubation by darkness under shaking (10 Hrz), the optical density in each cavity was evaluated with the aid of a microtitre plate reader.
0% means an efficacy which corresponds to that of the control, while an efficacy of 100% means that no fungal growth is observed.

In another assay the test system is Ustilago avenae. As to the kind of experiment: In vitro microtest of Ustilago avenae. The settings on record: 1 ppm; 5 days incubation. The procedure: V.12. In vitro Microtest of Ustilago avenae
as §1, §2
A spore suspension of Ustilago avenae was used for inoculation. After 5 days of incubation by darkness under shaking (10 Hrz), the optical density in each cavity was evaluated with the aid of a microtitre plate reader. 0% means an efficacy which corresponds to that of the control, while an efficacy of 100% means that no fungal growth is observed.

The subject of the next assay is Alternaria mali. Description: In vitro microtest of Alternaria mali. To be noted: 3 ppm; 4 days incubation. How it is done: V.6. In vitro Microtest of Alternaria mali
as §1
The active compound is applied as the technical active substance dissolved in methanol. A spore suspension of Alternaria mali was used for inoculation. After 4 days of incubation by darkness under shaking (10 Hrz), the optical density in each cavity was evaluated with the aid of a microtitre plate reader. 0% means an efficacy which corresponds to that of the control, while an efficacy of 100% means that no fungal growth is observed.

Another assay has as its system Phytophthora cryptogea. As to the kind of experiment: In vitro microtest of Phytophthora cryptogea. The settings on record: 3 ppm; 4 days incubation. The procedure:
V.11. In vitro Microtest of Phytophthora cryptogea
as §1, §2
A mycelium suspension of Phytophthora cryptogea was used for inoculation. After 4 days of incubation by darkness under shaking (10 Hrz), the optical density in each cavity was evaluated with the aid of a microtitre plate reader. 0% means an efficacy which corresponds to that of the control, while an efficacy of 100% means that no fungal growth is observed.

The structures appear in SMILES notation. Read-outs that look alike come from different tables or passages of the source.

Efficacy in % data for six compounds are collected here from patent US8440591B2, “Pesticidal composition comprising synthetic compound useful as nodulation agent of leguminous plants and a fungicide compound” (Bayer Cropscience AG, priority 2006, dated 2013).

As for `CCCCCC/C=C\CCCOc1cccc(C(=O)N[C@@H]2C(O[C@H]3C(O)C(NC(C)=O)C(O[C@@H]4C(CO)O[C@@H](O[C@H]5C(O)C(NC(C)=O)C(OC6C(CO[C@@H]7OC(C)C(O)[C@H](O)[C@H]7OC)OC(O)[C@@H](NC(C)=O)[C@H]6O)O[C@H]5CO)[C@@H](NC(C)=O)C4O)O[C@H]3CO)OC(CO)[C@@H](O)[C@@H]2O)c1` (some centres unmarked) [B1], the Efficacy in % with Botrytis cinerea (0.00000003 ppm, 7 days incubation) was 10%; with Botrytis cinerea (0.00003 ppm, 5 days incubation), 18%; in the assay on Septoria tritici (0.000001 ppm) it was 1%; in the assay with Coriolus versicolor (0.000001 ppm), 22%; in the assay with Pyricularia oryzae (0.00001 ppm, 3 days incubation) it was 2%; with Pyricularia oryzae (0.00003 ppm, 5 days incubation), 5%. Besides, the Efficacy in % in the assay with Penicillium brevicaule (0.00003 ppm) is recorded as 0%; with Gibberella zeae (0.000001 ppm, 3 days incubation), 4%; in the assay with Gibberella zeae (0.00001 ppm, 3 days incubation), 12%; in the assay on Rhizoctonia solani (0.00000003 ppm, 5 days incubation), 41%; in the assay with Rhizoctonia solani (0.00001 ppm, 7 days incubation), 9%.
For the compound `CON=C(C(=O)OC)c1ccccc1CON=C(C)c1cccc(C(F)(F)F)c1` [A4, Trifloxystrobin], the Efficacy in % came out at 63% with Pyricularia oryzae (0.1 ppm, 3 days incubation); 92% with Ustilago avenae; 88% in the assay on Gibberella zeae (0.1 ppm, 3 days incubation); 75% with Gibberella zeae (1 ppm, 5 days incubation); 43% with Rhizoctonia solani (1 ppm, 4 days incubation).
In the case of `COCC(=O)N(c1c(C)cccc1C)C(C)C(=O)OC` (centres unmarked) [A5, Metalaxyl], the Efficacy in % in the assay on Botrytis cinerea (0.0003 ppm, 7 days incubation) was determined as 4%; in the assay on Rhizoctonia solani (0.0003 ppm, 5 days incubation), 80%.
In the case of `Cc1nn(C)c(F)c1C(=O)Nc1ccccc1C(C)CC(C)C` (centres unmarked) [A1, N-[2-(1,3-dimethylbutyl)phenyl]-5-fluoro-1,3-dimethyl-1H-pyrazole-4-carboxamide], the Efficacy in % is on record as 4% with Septoria tritici (0.01 ppm); 97% in the assay on Coriolus versicolor (0.01 ppm); 37% with Penicillium brevicaule (0.3 ppm); 39% in the assay on Gibberella zeae (1 ppm, 4 days incubation); 79% with Rhizoctonia solani (0.003 ppm, 3 days incubation).
Regarding `CC(C)(C)C(O)(CCc1ccc(Cl)cc1)Cn1cncn1` (centres unmarked) [A3, Tebuconazole], the Efficacy in % was 33% in the assay on Botrytis cinerea (0.1 ppm, 4 days incubation); 96% in the assay with Pyricularia oryzae (0.3 ppm, 5 days incubation); 97% with Alternaria mali; 9% with Gibberella zeae (0.01 ppm, 3 days incubation); 47% in the assay with Rhizoctonia solani (3 ppm, 3 days incubation).
As to `OC(Cc1ccccc1Cl)(Cn1nc[nH]c1=S)C1(Cl)CC1` (centres unmarked) [A2, Prothioconazole], the Efficacy in % was 40% in the assay on Botrytis cinerea (0.3 ppm, 5 days incubation); 48% in the assay on Coriolus versicolor (0.003 ppm); 19% with Phytophthora cryptogea; 50% in the assay with Rhizoctonia solani (0.1 ppm, 7 days incubation).
